Entries after “also recorded” stand apart in the source; their conditions may differ. Marks after values point to notes of the source that are not given here.
Legend:
[1] = Photophysical characterization (absorbance, extinction coefficient, emission, quantum yield); format: physicochemical; conditions: for fluorescence, in words: aqueous / phosphate buffer; for ΦEtOH: EtOH; for ΦH2O: H2O
Description: Extinction coefficients were the average of three independent determinations of three different readings from the lowest energy transition at three concentrations. Quantum yields are the average of three determinations of both quantum yield standard 9,10-diphenylanthracene and the synthesized coumarines at 340 nm unless otherwise indicated.
All spectra were recorded in 100 mM sodium phosphate (pH 7.4) unless otherwise indicated. Recorded λmax is that of the longest wavelength transition. Extinction coefficients were reported as the average of at least three independent preparations of the probes. Fluorescence measurements were taken on a Jobin Yvon Fluorolog fluorescence spectrofluorometer (slits 3, HV 750) in 100 mM sodium phosphate pH 7.4 buffer unless otherwise indicated. Quantum yields were measured relative to 9,10 diphenylanthracene in EtOH.4 Reported quantum efficiencies are the average of at least three independent preparations of the probes.
The extinction coefficient ε relates the absorbance of a compound to its concentration as expressed in Beer's law (A=εbc where A is absorbance, b is pathlength, and c is concentration). Extinction coefficients were the average of three independent determinations of three different readings of absorbance from the lowest energy transition at three concentrations. The quantum yield of fluorescence is the fraction of absorbed photons that lead to fluorescence; the number of photons fluoresced divided by the number of photons absorbed. To obtain the quantum yields of the synthesized coumarines their efficiency was compared to standard 9,10-diphenylanthracene at 340 nm in three different determinations. The effect of different solvents on the fluorescence of the compounds was also tested. The compounds were dissolved in methanol, chloroform and toluene and their emissions spectrum was taken.

[2] = Chemical stability; conditions: in words
[3] = Table 4, in water, relative to 9,10-diphenyl anthracene (excited at 340 nm)
[4] = Table 4 indoles, in water, first λmax column
[5] = Table 4 indoles, in water, second λmax
[6] = Table 4, in water, relative to 9,10-diphenyl anthracene (excited at 365 nm)
[7] = Table 3, in water, relative to 9,10-diphenyl anthracene (excited at 365 nm)
[8] = Table 3 hydroxyl-amine probes, in water
[9] = Table 5, 100 mM sodium phosphate pH 7.4
[10] = Table 5, 100 mM sodium phosphate pH 7.4, longest wavelength transition
[11] = Table 5, relative to 9,10-diphenyl anthracene (excited at 365 nm)
[12] = Table 5, relative to 9,10-diphenyl anthracene (excited at 340 nm)
[13] = Table 4, in water, relative to coumarin 6 (excited at 420 nm)

O=c1ccc2cc3[nH]ccc3cc2o1 [XX]
Φ [1, 3]: 0.0082 ± 0.0004^a
ε (M^−1cm^−1) ([1]; Table 4 indoles, in water): 17,000 ± 2,000 M^−1cm^−1
λmax (nm) [1, 4]: 335 nm
λmax (nm) [1, 5]: 524 nm

CC12CC(=O)Oc3ccc(N)c(c31)CCN2 (stereo not drawn) [Probe 125, 7-Amino-3a-methyl-3a,4,5,6-tetrahydro-3H-1-oxa-4-aza-phenalen-2-one]
fluorescence, in words [1]: non-fluorescent

O=c1oc2c3c4c(cc2cc1-c1ccc2[nH]ccc2c1)CCCN4CCC3 [XIV]
Φ [1, 6]: 0.050 ± 0.005^b
λmax (nm) [1, 4]: 388 nm
λmax (nm) [1, 5]: 501 nm

O=c1oc2c3c4c(cc2c(C(F)(F)F)c1-c1ccc2[nH]ccc2c1)CCCN4CCC3 [XV]
λmax (nm) [1, 4]: 439 nm
λmax (nm) [1, 5]: 557 nm

Cc1c(-c2ccc(N)c(CCO)c2)c(=O)oc2c3c4c(cc12)CCCN4CCC3 [VII]
Φ [1, 7]: 0.0040
ε (M^−1cm^−1) [1, 8]: 21,000 ± 2,000 M^−1cm^−1
λcm (nm) [1, 8]: 499 nm
λmax (nm) [1, 8]: 391 nm

Cc1cc(=O)oc2ccc3[nH]ccc3c12 [XVIII]
Φ [1, 3]: 0.18 ± 0.05^a
ε (M^−1cm^−1) ([1]; Table 4 indoles, in water): 11,600 ± 800 M^−1cm^−1
λmax (nm) [1, 4]: 349 nm
λmax (nm) [1, 5]: 492 nm

Cc1cc(=O)oc2ccc(N)c(CCN)c12 [Probe 115, 6-Amino-5-(2-amino-ethyl)-4-methyl-chromen-2-one]
chemical stability [2]: stable when protonated; also recorded: very unstable once deprotonated, or even under neutral condition

NCCc1ccc2oc(=O)ccc2c1N [V]
ε (M^−1cm^−1) ([1]; Table 2 diamines, in water): 6,000 ± 100 M^−1cm^−1
λmax (nm) ([1]; Table 2 diamines, in water): 299 nm

[4-(4-Methyl-2-oxo-2H-chromen-7-yl)-phenyl]-carbamic acid tert-butyl ester [Probe 2]
ε (M^−1cm^−1) [1, 9]: 17,000 ± 1,000 M^−1cm^−1
λcm (nm) [1, 9]: 477 nm
λmax (nm) [1, 10]: 401 nm
ΦEtOH [1, 11]: 0.59 ± 0.09^b
ΦH2O [1, 11]: 0.08 ± 0.01^b

Nc1cc2ccc(=O)oc2cc1CCO [Probe 58, 6-Amino-7-(2-hydroxy-ethyl)-chromen-2-one]
fluorescence, in words [1]: basically non-fluorescent; also recorded: very weakly fluorescent

Cc1c(-c2ccc3[nH]ccc3c2)c(=O)oc2c3c4c(cc12)CCCN4CCC3 [Probe 24, 9-(1H-Indol-5-yl)-8-methyl-2,3,5,6-tetrahydro-1H, 4H-11-oxa-3a-aza-benzo[de]anthracen-10-one]
emission wavelength [1]: 495 nm

Nc1c(CCO)ccc2oc(=O)ccc12 [X]
ε (M^−1cm^−1) [1, 8]: 13,000 ± 3,000 M^−1cm^−1
λmax (nm) [1, 8]: 298 nm

Nc1c(CCO)ccc2oc(=O)ccc12 [Probe 81, 5-Amino-6-(2-hydroxy-ethyl)-chromen-2-one]
fluorescence, in words [1]: very weakly fluorescent; also recorded: only weak fluorescence

CCN(CC)c1ccc2c(C)c(-c3ccc(N)c(CCN)c3)c(=O)oc2c1 [I]
ε (M^−1cm^−1) ([1]; Table 2 diamines, in water): 13,000 ± 1,000 M^−1cm^−1
λcm (nm) ([1]; Table 2 diamines, in water): 484 nm
λmax (nm) ([1]; Table 2 diamines, in water): 390 nm

Cc1cc(=O)oc2c1ccc1[nH]ccc12 [Probe 36, 4-Methyl-7H-pyrano[2,3-e]indol-2-one]
fluorescence, in words [1]: very weak fluorescence emission intensity; also recorded: very weakly fluorescent

CCN(CC)c1ccc2c(C)c(-c3ccc4cc[nH]c4c3)c(=O)oc2c1 [XIII]
Φ [1, 6]: 0.0103 ± 0.0003^b
ε (M^−1cm^−1) ([1]; Table 4 indoles, in water): 20,000 ± 3,000 M^−1cm^−1
λmax (nm) [1, 4]: 399 nm
λmax (nm) [1, 5]: 484 nm

7-[4-Amino-3-(2-hydroxy-ethyl)-phenyl]-4-methyl-chromen-2-one [Probe 3]
λcm (nm) [1, 9]: 492 nm
λmax (nm) [1, 10]: 350 nm
ΦH2O [1, 12]: 0.010 ± 0.003^a

NCCc1cc2oc(=O)ccc2cc1N [Probe 116, 6-Amino-7-(2-amino-ethyl)-chromen-2-one]
fluorescence, in words [1]: very weakly fluorescent
chemical stability [2]: perfectly stable

Cc1cc(=O)oc2cc(-c3ccc4[nH]ccc4c3)ccc12 [XI]
Φ [1, 3]: 0.00329 ± 0.00008^a
λmax (nm) [1, 4]: 339 nm
λmax (nm) [1, 5]: 445 nm

Cc1cc(=O)oc2ccc3cc[nH]c3c12 [Probe 55, 9-Methyl-1H-pyrano[2,3-g]indol-7-one]
fluorescence, in words [1]: quite fluorescent

Cc1cc(=O)oc2ccc(N)c(CCN)c12 [IV]
Φ ([1]; Table 2, in water, relative to 9,10-diphenyl anthracene (excited at 340 nm)): 0.010

O=c1ccc2c(ccc3[nH]ccc32)o1 [XIX]
Φ [1, 13]: 0.05 ± 0.02^c
ε (M^−1cm^−1) ([1]; Table 4 indoles, in water): 9,400 ± 900 M^−1cm^−1
λmax (nm) [1, 4]: 355 nm
λmax (nm) [1, 5]: 517 nm

Nc1ccc2oc(=O)ccc2c1CCO [IX]
Φ [1, 7]: 0.0017
ε (M^−1cm^−1) [1, 8]: 3,400 ± 500 M^−1cm^−1
λmax (nm) [1, 8]: 357 nm

7-(1H-Indol-5-yl)-4-methyl-chromen-2-one [Probe 4]
ε (M^−1cm^−1) [1, 9]: 11,600 ± 800 M^−1cm^−1
λmax (nm) [1, 10]: 349 nm
ΦEtOH [1, 12]: 0.36 ± 0.07^a
ΦH2O [1, 12]: 0.13 ± 0.02^a

O=c1oc2c3c4c(cc2c(C(F)(F)F)c1-c1ccc2[nH]ccc2c1)CCCN4CCC3 [Probe 25, 9-(1H-Indol-5-yl)-8-trifluoromethyl-2,3,5,6-tetrahydro-1H, 4H-11-oxa-3a-aza-benzo[de]anthracen-10-one]
fluorescence quantum yield, in words [1]: rather low quantum yield
fluorescence, in words [1]: distinct red-shift emission

CCN(CC)c1ccc2c(C)c(-c3ccc(N)c(CCO)c3)c(=O)oc2c1 [VI]
Φ [1, 7]: 0.014
ε (M^−1cm^−1) [1, 8]: 15,000 ± 1,000 M^−1cm^−1
λcm (nm) [1, 8]: 499 nm
λmax (nm) [1, 8]: 394 nm

Cc1cc(=O)oc2ccc3cc[nH]c3c12 [XVII]
Φ [1, 3]: 0.0531 ± 0.0001^a
ε (M^−1cm^−1) ([1]; Table 4 indoles, in water): 14,000 ± 3,000 M^−1cm^−1
λmax (nm) [1, 4]: 330 nm
λmax (nm) [1, 5]: 488 nm

CCN(CC)c1ccc2cc(-c3ccc4[nH]ccc4c3)c(=O)oc2c1 [XII]
Φ [1, 13]: 0.08 ± 0.02^c
ε (M^−1cm^−1) ([1]; Table 4 indoles, in water): 17,000 ± 1,000 M^−1cm^−1
λmax (nm) [1, 4]: 401 nm
λmax (nm) [1, 5]: 477 nm

7-(4-Amino-phenyl)-4-methyl-chromen-2-one [Probe 1]
ε (M^−1cm^−1) [1, 9]: 13,000 ± 1,000 M^−1cm^−1
λcm (nm) [1, 9]: 484 nm
λmax (nm) [1, 10]: 390 nm
ΦEtOH [1, 11]: 0.0287 ± 0.0006^b
ΦH2O [1, 11]: 0.00112 ± 0.00008^b

Cc1cc(=O)oc2ccc3[nH]ccc3c12 [Probe 52, 9-Methyl-3H-pyrano[3,2-e]indol-7-one]
fluorescence, in words [1]: quite fluorescent

Nc1cc2ccc(=O)oc2cc1CCO [VIII]
λmax (nm) [1, 8]: 354 nm

Reference: patent US20080194522A1, “Development of Fluorogenic Substrates For Monoamine Oxidases (Mao-A and Mao-B)” (priority 2004, published 2008)
